In US9163044B2, “Carbon monoxide releasing molecules and uses thereof” (Alfama, Inc., priority 2011, dated 2015):

What was measured:
[1] = CO release kinetics in the presence of rat liver microsomes, K-phosphate buffer (pH 7.4); assay type: in vitro ADME; settings: for effect of liver microsomes on CO release / decay (in words): compared with incubation without microsomes; for CO eq. released in 1 h, Microsomes K-phosphate buffer (pH 7.4): with microsomes, 10 μM, 37° C., dark
Description: General Method for the CO Release in the Presence of Liver Microsomes
The CO release kinetics of Compounds 1b, 2b, 3b, 4b, and 5b were also evaluated in the presence of rat or human liver microsomes. In a 8-mL vial, the following reagents were combined:
200 μL of 0.5 M potassium phosphate buffer, pH 7.4
50 μL of NADPH regenerating system solution A (BD, Cat. No. 451220)
10 μL of NADPH regenerating system solution B (BD, Cat. No. 451200)
2 μL of 5 mM solution of the compound in DMSO (10 μM final concentration)
The vials were closed and after mixing, the samples were warmed to 37° C. for 5 minutes before an aliquot (25 μL, 0.5 mg protein content) of rat liver microsomes (BD, Cat. No. 452511) or human liver microsomes (BD, Cat. No. 452161) was added to each vial. In parallel analogous vials with all the reagents except the microsomes were prepared. Due to the light-sensitivity of the molybdenum compounds, the reactions were performed in the dark. The samples were incubated at 37° C. and gas samples of the headspace (from 100 μL to 500 μL) of the vials were removed with a gas-tight syringe after 5, 10, 15, 30, and 60 minutes (in some cases samples were also taken at 1, 2, 3 or 4 minutes) upon microsomes addition. The gas samples were then injected into empty sealed vials (8 mL volume) and the amount of CO present in the vials was measured using GC-RCP.
The CO equivalents released at each time point from each compound were determined by the following equation: (CO released (pmol)×number of CO ligands in the molecule)/([CO] in the compound (pmol)). A 1 mL solution of a tri-carbonyl compound, at 50 μM concentration contains a total of 150,000 pmol of CO.

[2] = in vitro metabolism study: decay on incubation with liver microsomes; assay type: in vitro ADME; settings: one hour / 60 minutes incubation
Description: Sixty percent decay could release up to 1.8 molar equivalents of CO. […] Therefore liver microsomes accelerate the decomposition of the compound. […] Microsomes were incubated with Compound 1b using closed vials to enable quantitative measurement of the released CO. As a control, Compound 1b was incubated under similar conditions in the absence of microsomes.
In an in vitro metabolism study of the CO release kinetics of Compound 3b, it was determined that 80% of Compound 3b decayed in 60 minutes incubation with liver microsomes. In order to investigate if this accelerated decomposition of Compound 3b in the presence of microsomes was inducing a faster CO release from the compound, the CO release profile of Compound 3b in the presence of liver microsomes was determined. Microsomes were incubated with Compound 3b using closed vials to enable quantitative measurement of the released CO. As a control, Compound 3b was incubated under similar conditions in the absence of microsomes. […] The initial rate of CO release is 0.0297 CO equivalents (297.22 pmol) per minute in the presence of microsomes and 0.0072 CO equivalents (72.265 pmol) per minute in the absence of microsomes.

[3] = tissue CO distribution in CD-1 female mice; assay type: in vivo; settings: for CO levels in the liver compared with blood, kidney, heart and lung tissues (in words): 50 mg/kg i.v., CD-1 female mice
Source text: Carbon monoxide-releasing molecules (CO-RMs) are carriers of carbon monoxide (CO) and can release CO in vivo. CO can bind to hemoglobin in the blood and to various heme proteins in cells. Vreman et al. Anal Biochem 341:280-289 describes a method to release CO bound to tissues into the gas phase, and quantify it using GC-RCP chromatography. We applied this methodology to assay CO in various tissues of mice treated with CO-RMs (see Example 2, herein). However, since the CO release method of Vreman (in vitro incubation with sulfosalicylic acid) also releases CO from the CO-RM, the CO released from tissue samples represents CO bound to tissue proteins and CO from CO-RM compound accumulated in tissue. For CO-RM compounds with slow CO release rates in vivo, the CO measured at the earliest sampling point (5 min after CO-RM administration) may therefore mostly be a measure for the tissue distribution of the intact CO-RM.
The compound was dissolved in PBS and the acids neutralized with 3 eq. NaOH (from a NaOH stock solution 2.5M). The pH was brought down to about 7.5 by adding HCl (from a stock solution 1 M). The compound was then administered i.v. (50 mg/kg in 150 μL) to two CD-1 female mice (Charles River). The mice were warmed for ten minutes under an infrared lamp to facilitate the i.v. administration into a tail vein. Five and twenty minutes after the dosing, the two mice were anesthetized with IsoFluorane, and the blood was collected from the retro-orbital plexus using a Pasteur pipette containing ˜20 μL of heparin solution. The animal was opened; the portal vein was cut and the organs were perfused by injecting 10-15 mL of cold PBS in the left ventricle of the heart. Then the heart, kidneys, liver and lung were collected, briefly washed with potassium phosphate buffer, dried with a paper towel and snap frozen in liquid nitrogen. Samples of the freshly collected blood were transferred to AVOXimeter 4000 cuvettes (ITC) to measure the levels of carboxyhemoglobin (COHb), oxyhemoglobin (O2Hb) and methemoglobin (MetHb) using a portable AVOXimeter 4000 CO-oximeter. The results are shown as mean percentage of total hemoglobin species in circulation. The organs and blood were conserved at −20° C. until the CO quantization was done.
For CO quantization, the protocol described by Vreman et al was followed. The organs were cut into small pieces, which were weighed and 4 volumes of water (a volume corresponding to four times the weight of the tissue sample) were added to each organ sample. The tissues were homogenized using a tissue tearer. Aliquots of homogenate ([…]) were placed into vials to which were added water ([…]) and sulfosalicylic acid (SSA, 5 μL, 30% [wt/vol]) immediately before they were closed with a gas-tight septum cap. The vials were incubated on ice for at least 20 min before being analyzed by GC-RCP (in later experiments, the incubation time was extended to 45 minutes). The amount of CO was calculated using a calibration curve prepared from CO standards. […] COHb was determined using an oximeter (AVOXimeter 4000, USA).
Table 6 provides the CO distribution in blood, heart, liver, lung and kidney following Compound 3b administration at 50 mg/kg by […]. CO was assayed by GC-RCP, 5 and 20 minutes after administration of the compound. The CO concentration in the several organs is normalized to the amount of CO quantified in the blood (CO concentration as fraction of concentration in blood 50 mg/kg Compound 3b injected i.v. at t=0; CO assayed in tissues by GC at t=5 min and t=20 min).

[4] = preliminary safety studies in mice; assay type: in vivo; settings: doses up to 1 g/kg

[C-]#[N+]C(C)(C)C(=O)O.[C-]#[N+]C(C)(C)C(=O)O.[C-]#[N+]C(C)(C)C(=O)O.[C-]#[O+].[C-]#[O+].[C-]#[O+].[Mo] [Compound 3b, tricarbonyl[tris(2-isocyano-2-methyl-propionic acid)]Mo(0)]
effect of liver microsomes on CO release / decay (in words) [1]: increased rate of CO release
initial CO release rate, presence versus absence of microsomes ([1]; ratio with/without microsomes): approximately 4 times faster
CO eq. released in 1 h, Microsomes K-phosphate buffer (pH 7.4) [1]: (1.5CO eq. in 1 h)
compound decayed on incubation with liver microsomes [2]: 80%
CO levels in the liver compared with blood, kidney, heart and lung tissues (in words) [3]: increased CO levels in the liver
CO concentration as fraction of concentration in blood: Blood, 5 min ([3]; 50 mg/kg, blood, t=5 min): 1
CO concentration as fraction of concentration in blood: Blood, 20 min ([3]; 50 mg/kg, blood, t=20 min): 1
CO concentration as fraction of concentration in blood: Heart, 5 min ([3]; 50 mg/kg, heart, t=5 min): 0.046 ± 0.012
CO concentration as fraction of concentration in blood: Heart, 20 min ([3]; 50 mg/kg, heart, t=20 min): 0.072 ± 0.055
CO concentration as fraction of concentration in blood: Kidney, 5 min ([3]; 50 mg/kg, kidney, t=5 min): 0.419 ± 0.295
CO concentration as fraction of concentration in blood: Kidney, 20 min ([3]; 50 mg/kg, kidney, t=20 min): 0.074 ± 0.028
CO concentration as fraction of concentration in blood: Liver, 5 min ([3]; 50 mg/kg, liver, t=5 min): 5.26 ± 3.18
CO concentration as fraction of concentration in blood: Liver, 20 min ([3]; 50 mg/kg, liver, t=20 min): 0.163 ± 0.062
CO concentration as fraction of concentration in blood: Lung, 5 min ([3]; 50 mg/kg, lung, t=5 min): 0.049 ± 0.020
CO concentration as fraction of concentration in blood: Lung, 20 min ([3]; 50 mg/kg, lung, t=20 min): 0.060 ± 0.046
CO concentration in the liver relative to blood ([3]; five minutes after i.v. injection): five times higher in the liver than in blood
toxicity in preliminary safety studies [4]: no toxicity

tricarbonyl[tris(isocyanoacetic acid)]Mo(0) [Compound 1b]
effect of liver microsomes on CO release / decay (in words) [1]: increased rate of CO release
CO eq. released in 1 h, Microsomes K-phosphate buffer (pH 7.4) [1]: (1.1CO eq. in 1 h)
compound decayed on incubation with liver microsomes [2]: 60%
CO levels in the liver compared with blood, kidney, heart and lung tissues (in words) [3]: no preferential accumulation of CO in the liver

CC([N+]#[C][Mo-6]([C]#[O+])([C]#[O+])([C]#[O+])([C]#[N+]C(C)C(=O)O)[C]#[N+]C(C)C(=O)O)C(=O)O (stereo not drawn) [Compound 2b, tricarbonyl[tris(2-isocyanopropionic acid)]Mo(0)]
effect of liver microsomes on CO release / decay (in words) [1]: accelerated the decay
CO eq. released in 1 h, Microsomes K-phosphate buffer (pH 7.4) [1]: (0.9CO eq. in 1 h)
CO levels in the liver compared with blood, kidney, heart and lung tissues (in words) [3]: increased CO levels in the liver
